Laboratory results published in patent US7981903B2, “2-[2-{phenylamino}-1H-pyrrolo[2,3-D]pyrimidin-4-yl)amino] benzamide derivatives as IGF-1R inhibitors for the treatment of cancer” (GlaxoSmithKline LLC, priority 2007, dated 2011).
pIC50: −log10 of the molar value.

Assays:
ALK = ALK (Homo sapiens, UniProt Q9UM73); assay: ALK enzyme assay (HTRF); format: biochemical; conditions: 0.25 nM ALK, 15.0 μM ATP, values given as pIC50 category
Method in brief: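 Isolated ALK phosphorylates a biotinylated tyrosine peptide, 120 min at 20° C; anti-phosphotyrosine Eu-cryptate/streptavidin-XL665 HTRF read after 60 min with EDTA-containing detection mix.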

Colo205 = assay: Inhibition of cell proliferation (CellTiter-Glo or InCell analyzer), Colo205; format: cell-based; conditions: Homo sapiens, COLO 205, 72 h / 3 days, values given as IC50 category
Method in brief: In one

NCI-H929 = assay: Inhibition of cell proliferation (CellTiter-Glo or InCell analyzer), NCI-H929; format: cell-based; conditions: Homo sapiens, 72 h / 3 days, values given as IC50 category
Method in brief: In one

[1] = target: T1, NIH-3T3 cells overexpressing human IR (Homo sapiens, UniProt P06213); assay: IR cellular autophosphorylation (DELFIA); format: cell-based; conditions: 2 h compound, insulin 3 ug/ml for 15 minutes, IC50 category
T1 construct: expressed in transfected cells; host or cells: NIH-3T3 (mouse fibroblasts)
Method in brief: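 Receptor autophosphorylation measured by DELFIA, capturing IGF-1R or IRβ and detecting with europium anti-pTyr, reported as percent of IGF-1- or insulin-stimulated signal. Compounds (30 uM to 1.5 nM) added 2 h before ligand, then 15 min stimulation (IGF-1 30 ng/ml or insulin 3 ug/ml).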

Chain of ALK (Q9UM73 19-1620): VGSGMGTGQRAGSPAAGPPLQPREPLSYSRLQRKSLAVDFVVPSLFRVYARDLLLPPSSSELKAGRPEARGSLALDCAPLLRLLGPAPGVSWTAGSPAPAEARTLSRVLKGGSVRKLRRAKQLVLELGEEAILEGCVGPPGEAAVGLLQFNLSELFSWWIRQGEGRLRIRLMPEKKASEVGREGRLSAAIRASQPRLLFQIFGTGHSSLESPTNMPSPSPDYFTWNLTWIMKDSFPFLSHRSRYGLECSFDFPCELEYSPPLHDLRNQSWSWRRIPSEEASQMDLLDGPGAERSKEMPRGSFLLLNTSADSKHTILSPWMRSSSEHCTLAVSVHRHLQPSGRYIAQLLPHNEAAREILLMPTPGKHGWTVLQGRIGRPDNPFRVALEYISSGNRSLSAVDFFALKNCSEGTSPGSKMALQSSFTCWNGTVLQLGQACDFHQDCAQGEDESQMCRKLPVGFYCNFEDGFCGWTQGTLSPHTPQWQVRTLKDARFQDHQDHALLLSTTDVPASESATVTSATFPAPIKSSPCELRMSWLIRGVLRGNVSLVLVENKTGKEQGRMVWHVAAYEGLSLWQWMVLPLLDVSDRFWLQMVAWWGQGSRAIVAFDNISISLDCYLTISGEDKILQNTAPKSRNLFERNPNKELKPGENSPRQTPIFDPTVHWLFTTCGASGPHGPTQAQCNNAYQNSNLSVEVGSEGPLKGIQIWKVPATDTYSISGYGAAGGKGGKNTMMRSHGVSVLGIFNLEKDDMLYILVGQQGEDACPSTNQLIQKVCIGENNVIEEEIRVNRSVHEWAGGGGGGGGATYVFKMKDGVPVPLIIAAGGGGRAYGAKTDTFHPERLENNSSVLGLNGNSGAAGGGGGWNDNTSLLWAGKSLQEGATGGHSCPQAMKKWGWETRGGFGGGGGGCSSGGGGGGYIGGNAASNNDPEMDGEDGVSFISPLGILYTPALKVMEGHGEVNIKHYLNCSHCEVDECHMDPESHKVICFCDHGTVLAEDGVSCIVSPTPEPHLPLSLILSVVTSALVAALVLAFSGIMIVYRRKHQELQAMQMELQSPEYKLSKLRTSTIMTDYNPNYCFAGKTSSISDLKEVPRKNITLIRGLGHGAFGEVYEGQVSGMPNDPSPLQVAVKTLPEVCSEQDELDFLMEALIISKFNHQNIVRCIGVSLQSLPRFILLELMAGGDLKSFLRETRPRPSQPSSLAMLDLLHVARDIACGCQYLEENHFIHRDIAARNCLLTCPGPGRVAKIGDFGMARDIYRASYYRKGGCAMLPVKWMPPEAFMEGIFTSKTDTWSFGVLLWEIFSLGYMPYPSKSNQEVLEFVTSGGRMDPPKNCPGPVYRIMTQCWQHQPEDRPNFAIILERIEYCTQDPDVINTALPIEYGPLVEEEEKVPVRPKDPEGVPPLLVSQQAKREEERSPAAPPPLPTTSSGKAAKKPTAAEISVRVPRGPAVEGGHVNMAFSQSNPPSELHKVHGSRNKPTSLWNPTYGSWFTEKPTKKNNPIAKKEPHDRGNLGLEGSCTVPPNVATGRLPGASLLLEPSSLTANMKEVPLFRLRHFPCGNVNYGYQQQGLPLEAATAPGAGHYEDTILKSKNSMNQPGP
T1 sequence (P06213 28-1382): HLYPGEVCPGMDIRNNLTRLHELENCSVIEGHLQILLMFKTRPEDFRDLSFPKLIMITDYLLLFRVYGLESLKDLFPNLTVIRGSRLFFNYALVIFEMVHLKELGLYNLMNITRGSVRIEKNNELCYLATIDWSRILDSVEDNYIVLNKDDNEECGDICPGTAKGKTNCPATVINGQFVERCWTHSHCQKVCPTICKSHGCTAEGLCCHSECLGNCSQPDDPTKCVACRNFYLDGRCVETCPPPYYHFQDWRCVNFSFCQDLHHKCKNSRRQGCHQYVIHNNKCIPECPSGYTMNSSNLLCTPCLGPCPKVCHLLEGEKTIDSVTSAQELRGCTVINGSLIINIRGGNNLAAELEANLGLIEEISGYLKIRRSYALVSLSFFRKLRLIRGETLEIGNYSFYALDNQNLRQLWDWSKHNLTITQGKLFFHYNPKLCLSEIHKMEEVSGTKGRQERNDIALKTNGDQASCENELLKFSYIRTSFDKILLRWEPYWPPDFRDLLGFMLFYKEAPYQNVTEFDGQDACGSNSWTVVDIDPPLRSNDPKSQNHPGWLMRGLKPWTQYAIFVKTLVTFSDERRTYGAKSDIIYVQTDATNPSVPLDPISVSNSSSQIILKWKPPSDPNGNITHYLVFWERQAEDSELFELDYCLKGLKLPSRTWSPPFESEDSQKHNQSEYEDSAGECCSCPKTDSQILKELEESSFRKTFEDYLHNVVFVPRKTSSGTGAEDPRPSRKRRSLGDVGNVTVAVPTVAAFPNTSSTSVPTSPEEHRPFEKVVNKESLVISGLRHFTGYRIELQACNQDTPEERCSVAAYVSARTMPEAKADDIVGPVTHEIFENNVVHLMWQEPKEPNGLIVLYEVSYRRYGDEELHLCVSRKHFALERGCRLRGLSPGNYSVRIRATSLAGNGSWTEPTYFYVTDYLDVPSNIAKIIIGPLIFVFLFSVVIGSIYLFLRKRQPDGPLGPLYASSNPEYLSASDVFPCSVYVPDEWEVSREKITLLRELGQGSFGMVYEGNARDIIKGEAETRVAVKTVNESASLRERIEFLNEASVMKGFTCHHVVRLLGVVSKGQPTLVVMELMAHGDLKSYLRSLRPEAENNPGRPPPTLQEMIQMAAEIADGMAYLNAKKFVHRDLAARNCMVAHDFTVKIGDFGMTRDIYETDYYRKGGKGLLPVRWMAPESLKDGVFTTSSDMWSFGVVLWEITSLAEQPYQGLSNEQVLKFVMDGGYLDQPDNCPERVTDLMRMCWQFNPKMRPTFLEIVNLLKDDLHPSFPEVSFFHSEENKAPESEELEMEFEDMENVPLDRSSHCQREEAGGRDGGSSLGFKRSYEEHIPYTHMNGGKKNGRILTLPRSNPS

Row | Structure (SMILES) | pIC50 (ALK) | pIC50 (Colo205) | pIC50 (NCI-H929) | pIC50 [1]
1 | COc1cc2c(cc1Nc1nc(Nc3cccc(F)c3C(N)=O)c3cc[nH]c3n1)N(C(=O)CN1CCN(C(C)C)CC1)CC2 [Example 186, 2-fluoro-6-[(2-{[1-{[4-(1-methylethyl)-1-piperazinyl]acetyl}-5-(methyloxy)-2,3-dihydro-1H-indol-6-yl]amino}-1H-pyrrolo[2,3-d]pyrimidin-4-yl)amino]benzamide] | 6.70 to 8.30 | < 6.00 | 6.00 to 6.60 | < 6.30
2 | COc1cc2c(cc1Nc1nc(Nc3cccc(F)c3C(N)=O)c3cc[nH]c3n1)N(C(=O)[C@@H]1CCCN1C)CC2 [Example 147, 2-fluoro-6-[(2-{[5-(methyloxy)-1-(1-methyl-L-prolyl)-2,3-dihydro-1H-indol-6-yl]amino}-1H-pyrrolo[2,3-d]pyrimidin-4-yl)amino]benzamide] | 6.70 to 8.30 | 6.00 to 6.60 | > 6.60 | 6.30 to 7.00
3 | COc1cc2c(cc1Nc1nc(Nc3cccc(F)c3C(N)=O)c3cc[nH]c3n1)N(CCN(C)C)CC2 [Example 117, 2-[(2-{[1-[2-(dimethylamino)ethyl]-5-(methyloxy)-2,3-dihydro-1H-indol-6-yl]amino}-1H-pyrrolo[2,3-d]pyrimidin-4-yl)amino]-6-fluorobenzamide] | 6.70 to 8.30 | < 6.00 | 6.00 to 6.60 | < 6.30
4 | COc1cc2c(cc1Nc1nc(Nc3cccc(F)c3C(N)=O)c3cc[nH]c3n1)N(C(=O)CCN(C)C)CCC2 [Example 214, 2-[(2-{[1-(N,N-dimethyl-β-alanyl)-6-(methyloxy)-1,2,3,4-tetrahydro-7-quinolinyl]amino}-1H-pyrrolo[2,3-d]pyrimidin-4-yl)amino]-6-fluorobenzamide] | 6.70 to 8.30 | 6.00 to 6.60 | > 6.60 | 6.30 to 7.00
5 | CCN(C)CC(=O)N1CCc2cc(OC)c(Nc3nc(Nc4cccc(F)c4C(=O)NC)c4cc[nH]c4n3)cc21 [Example 165, 2-[(2-{[1-(N-ethyl-N-methylglycyl)-5-(methyloxy)-2,3-dihydro-1H-indol-6-yl]amino}-1H-pyrrolo[2,3-d]pyrimidin-4-yl)amino]-6-fluoro-N-methylbenzamide] | 8.40 to 8.90 | < 6.00 | 6.00 to 6.60 | 6.30 to 7.00
6 | CNC(=O)c1c(F)cccc1Nc1nc(Nc2cc3c(cc2OC)CCN3C(=O)C(C)(C)O)nc2[nH]ccc12 [Example 193, 2-fluoro-6-[(2-{[1-(2-hydroxy-2-methylpropanoyl)-5-(methyloxy)-2,3-dihydro-1H-indol-6-yl]amino}-1H-pyrrolo[2,3-d]pyrimidin-4-yl)amino]-N-methylbenzamide] | 6.70 to 8.30 | < 6.00 | < 6.00 | < 6.30
7 | COc1cc2c(cc1Nc1nc(Nc3cccc(F)c3C(N)=O)c3cc[nH]c3n1)N(C(=O)CCN(C)C)CC2 [Example 118, 2-[(2-{[1-(N,N-dimethyl-b-alanyl)-5-(methyloxy)-2,3-dihydro-1H-indol-6-yl]amino}-1H-pyrrolo[2,3-d]pyrimidin-4-yl)amino]-6-fluorobenzamide] | 6.70 to 8.30 | 6.00 to 6.60 | > 6.60 | < 6.30
8 | CCCN1CCC(N2CCc3cc(OC)c(Nc4nc(Nc5cccc(F)c5C(N)=O)c5cc[nH]c5n4)cc3C2)CC1 [Example 122, 2-fluoro-6-[(2-{[6-(methyloxy)-2-(1-propyl-4-piperidinyl)-1,2,3,4-tetrahydro-7-isoquinolinyl]amino}-1H-pyrrolo[2,3-d]pyrimidin-4-yl)amino]benzamide] | 6.70 to 8.30 | < 6.00 | > 6.60 | > 7.00
9 | COc1ccc(OC[C@@H](O)CN2CCCC2)cc1Nc1nc(Nc2cc(F)c(F)cc2C(N)=O)c2cc[nH]c2n1 [Example 107, 4,5-difluoro-2-[(2-{[5-{[(2S)-2-hydroxy-3-(1-pyrrolidinyl)propyl]oxy}-2-(methyloxy)phenyl]amino}-1H-pyrrolo[2,3-d]pyrimidin-4-yl)amino]benzamide] | 8.40 to 8.90 | 6.00 to 6.60 |  | < 6.30
10 | COc1ccc(C(N)=O)c(Nc2nc(Nc3ccc(N4CCOC[C@@H]4C)cc3OC)nc3[nH]ccc23)c1 [Example 39, 2-[(2-{[4-[(3S)-3-methyl-4-morpholinyl]-2-(methyloxy)phenyl]amino}-1H-pyrrolo[2,3-d]pyrimidin-4-yl)amino]-4-(methyloxy)benzamide] | 8.40 to 8.90 | 6.00 to 6.60 |  | 

The remaining lines, values ahead:

Row | pIC50 (ALK) | pIC50 (Colo205) | pIC50 (NCI-H929) | pIC50 [1] | Structure (SMILES)
11 | 8.40 to 8.90 | > 6.60 |  | > 7.00 | COc1cc(N2CCOC[C@@H]2C)ccc1Nc1nc(Nc2cc(F)ccc2C(N)=O)c2cc[nH]c2n1 [Example 84, 4-fluoro-2-[(2-{[4-[(3S)-3-methyl-4-morpholinyl]-2-(methyloxy)phenyl]amino}-1H-pyrrolo[2,3-d]pyrimidin-4-yl)amino]benzamide]
12 | 9.00 to 9.60 | 6.00 to 6.60 | > 6.60 | > 7.00 | COc1cc(OCCN2CCN(C)CC2)ccc1Nc1nc(Nc2cccc(F)c2C(N)=O)c2cc[nH]c2n1 [Example 203, 2-fluoro-6-({2-[(2-(methyloxy)-4-{[2-(4-methyl-1-piperazinyl)ethyl]oxy}phenyl)amino]-1H-pyrrolo[2,3-d]pyrimidin-4-yl}amino)benzamide]
13 | 8.40 to 8.90 | 6.00 to 6.60 | > 6.60 | > 7.00 | COc1cc2c(cc1Nc1nc(Nc3cc(Cl)cc(F)c3C(N)=O)c3cc[nH]c3n1)N(C(=O)CN(C)C)CC2 [Example 119, 4-chloro-2-[(2-{[1-(N,N-dimethylglycyl)-5-(methyloxy)-2,3-dihydro-1H-indol-6-yl]amino}-1H-pyrrolo[2,3-d]pyrimidin-4-yl)amino]-6-fluorobenzamide]
14 | 8.40 to 8.90 | < 6.00 | > 6.60 | 6.30 to 7.00 | COc1cc2c(cc1Nc1nc(Nc3cccc(F)c3C(N)=O)c3cc[nH]c3n1)N(C(=O)CCN1CCOCC1)CC2 [Example 187, 2-fluoro-6-{[2-({5-(methyloxy)-1-[3-(4-morpholinyl)propanoyl]-2,3-dihydro-1H-indol-6-yl}amino)-1H-pyrrolo[2,3-d]pyrimidin-4-yl]amino}benzamide]
15 | 9.00 to 9.60 | > 6.60 | > 6.60 | > 7.00 | CCCN1CCC(c2ccc(Nc3nc(Nc4cc(F)cc(F)c4C(N)=O)c4cc[nH]c4n3)c(OC)c2)CC1 [Example 92, 2,4-difluoro-6-[(2-{[2-(methyloxy)-4-(1-propyl-4-piperidinyl)phenyl]amino}-1H-pyrrolo[2,3-d]pyrimidin-4-yl)amino]benzamide]
16 | 9.00 to 9.60 | > 6.60 | > 6.60 | > 7.00 | COc1cc(N2CCN(C(C)C)CC2)c(C)cc1Nc1nc(Nc2cc(F)cc(F)c2C(N)=O)c2cc[nH]c2n1 [Example 91, 2,4-difluoro-6-[(2-{[5-methyl-4-[4-(1-methylethyl)-1-piperazinyl]-2-(methyloxy)phenyl]amino}-1H-pyrrolo[2,3-d]pyrimidin-4-yl)amino]benzamide]
17 | 9.00 to 9.60 | > 6.60 |  |  | COc1ccc(NC(=O)CN(C)C)cc1Nc1nc(Nc2ccccc2C(N)=O)c2cc[nH]c2n1 [Example 15, 2-[(2-{[5-[(N,N-dimethylglycyl)amino]-2-(methyloxy)phenyl]amino}-1H-pyrrolo[2,3-d]pyrimidin-4-yl)amino]benzamide]
18 | 9.00 to 9.60 | > 6.60 |  | < 6.30 | COc1ccc(OC[C@@H](O)CN(C)C)cc1Nc1nc(Nc2cc(F)ccc2C(N)=O)c2cc[nH]c2n1 [Example 86, 2-[(2-{[5-{[(2S)-3-(dimethylamino)-2-hydroxypropyl]oxy}-2-(methyloxy)phenyl]amino}-1H-pyrrolo[2,3-d]pyrimidin-4-yl)amino]-4-fluorobenzamide]
19 | 9.00 to 9.60 | 6.00 to 6.60 |  | 6.30 to 7.00 | COc1cc(N2CCC(N3CCOCC3)CC2)ccc1Nc1nc(Nc2cc(F)ccc2C(N)=O)c2cc[nH]c2n1 [Example 78, 4-fluoro-2-{[2-({2-(methyloxy)-4-[4-(4-morpholinyl)-1-piperidinyl]phenyl}amino)-1H-pyrrolo[2,3-d]pyrimidin-4-yl]amino}benzamide]
20 | 9.00 to 9.60 | > 6.60 |  |  | CN(C)CC(=O)Nc1ccc(F)c(Nc2nc(Nc3ccccc3C(N)=O)c3cc[nH]c3n2)c1 [Example 17, 2-{[2-({5-[(N,N-dimethylglycyl)amino]-2-fluorophenyl}amino)-1H-pyrrolo[2,3-d]pyrimidin-4-yl]amino}benzamide]
21 | 9.00 to 9.60 | > 6.60 |  | > 7.00 | CCCN1CCCC(c2ccc(Nc3nc(Nc4ccccc4C(N)=O)c4cc[nH]c4n3)c(OC)c2)C1 (stereo not shown) [Example 3, 2-[(2-{[2-(methyloxy)-4-(1-propyl-3-piperidinyl)phenyl]amino}-1H-pyrrolo[2,3-d]pyrimidin-4-yl)amino]benzamide]
22 | 9.00 to 9.60 | > 6.60 |  | 6.30 to 7.00 | CCCN1CCC=C(c2ccc(Nc3nc(Nc4ccc(F)cc4C(N)=O)c4cc[nH]c4n3)c(OC)c2)C1 [Example 54, 5-fluoro-2-[(2-{[2-(methyloxy)-4-(1-propyl-1,2,5,6-tetrahydro-3-pyridinyl)phenyl]amino}-1H-pyrrolo[2,3-d]pyrimidin-4-yl)amino]benzamide]
23 | 9.00 to 9.60 | 6.00 to 6.60 |  | 6.30 to 7.00 | CN(C)CC(=O)Nc1ccc(OC(F)(F)F)c(Nc2nc(Nc3ccccc3C(N)=O)c3cc[nH]c3n2)c1 [Example 16, 2-{[2-({5-[(N,N-dimethylglycyl)amino]-2-[(trifluoromethyl)oxy]phenyl}amino)-1H-pyrrolo[2,3-d]pyrimidin-4-yl]amino}benzamide]
